Test results as given in patent publication US20020162128A1, “Non-human animal deficient in function of pituitary adenylate cyclase-activating polypeptide gene” (priority 2000, published 2002).

Assays:
Assay type in all cases: in vivo, mouse
[1] = system: PACAP−/− mice; assay: Catalepsy in the bar test after haloperidol; conditions: haloperidol 0.2 and 2 mg/kg intraperitoneally; PACAP−/− mice compared with wild-type mice
Experimental: (§1) Motor activity was quantified using an automated video-tracking system, the video image motion analyzer AXIS-90 (Neuroscience, Inc., Tokyo, Japan). A computer program was used to overlay grid lines defining 25 separate regions within a circular open field (60 cm in diameter, 30 cm deep, illuminated with white light, 100 lux). Paths taken by each mouse were stored permanently as x-y coordinate sequences, and parameters indicative of locomotor activity were assessed. Vertical activity (rearing and jumping) were also scored. In the haloperidol study, the drug was injected intraperitoneally 20 min prior to monitoring locomotor activity, which was measured for 90 min by another activity-monitoring system, Supermex (multi-channel system; Muromachi Kikai Co., Ltd., Tokyo, Japan). Subsequently, the same mice were tested for catalepsy in the bar test as previously described in Boulay, D., Depoortere, R., Oblin, A., Sanger, D. J., Schoemaker, H. & Perrault, G. (2000) Eur. J. Pharmacol. 391, 63-73.
(§2) Effects of haloperidol on locomotor activity. (A) PACAP+/+and PACAP−/− mice (n =6-7) were injected intraperitoneally with 0.2 and 2 mg/kg haloperidol or vehicle (0.5% carboxymethyl cellulose sodium) and 20 min later placed in the open field for automated measurement of locomotor parameters over a 90 min test period. (B) Subsequently, each mouse was tested for catalepsy in the bar test. […]

[2] = system: PACAP−/− mice; assay: Effect of haloperidol on locomotor hyperactivity in the open field; conditions: haloperidol 0.2 mg/kg intraperitoneally, 20 min before 90 min test, versus vehicle
Experimental: as §1, §2

[3] = system: wild-type mice; assay: Effect of haloperidol on locomotor activity in the open field; conditions: haloperidol 0.2 mg/kg intraperitoneally, 20 min before 90 min test, versus vehicle
Experimental: as §1, §2

O=C(CCCN1CCC(O)(c2ccc(Cl)cc2)CC1)c1ccc(F)cc1 [Haloperidol, haloperidol]
cataleptogenic effect (bar test) [1]: quite similar to that in wild-type mice | reduction of hyperactivity (total locomotor activity) [2]: 65±10 % reduction | impairment of locomotor activity (total activity) [3]: 43±21 % reduction
